# Data taken from patent US10568900B1, “Androgen effectors” (priority 2013, dated 2020).
# Entries after “also recorded” stand apart in the source; their conditions may differ. Read-outs that look alike come from different tables or passages of the source.
# Tests used:
# [1] = biological target: T1, human androgen receptor (hAR) (Homo sapiens, UniProt P10275); test: Human Androgen Receptor (hAR) assay in recombinant yeast strain BJ1991 PGKhAR; assay type: cell-based
# T1 construct: expressed in transfected cells; host or cells: recombinant yeast strain BJ1991 PGKhAR
# T1 sequence (P10275 1-920): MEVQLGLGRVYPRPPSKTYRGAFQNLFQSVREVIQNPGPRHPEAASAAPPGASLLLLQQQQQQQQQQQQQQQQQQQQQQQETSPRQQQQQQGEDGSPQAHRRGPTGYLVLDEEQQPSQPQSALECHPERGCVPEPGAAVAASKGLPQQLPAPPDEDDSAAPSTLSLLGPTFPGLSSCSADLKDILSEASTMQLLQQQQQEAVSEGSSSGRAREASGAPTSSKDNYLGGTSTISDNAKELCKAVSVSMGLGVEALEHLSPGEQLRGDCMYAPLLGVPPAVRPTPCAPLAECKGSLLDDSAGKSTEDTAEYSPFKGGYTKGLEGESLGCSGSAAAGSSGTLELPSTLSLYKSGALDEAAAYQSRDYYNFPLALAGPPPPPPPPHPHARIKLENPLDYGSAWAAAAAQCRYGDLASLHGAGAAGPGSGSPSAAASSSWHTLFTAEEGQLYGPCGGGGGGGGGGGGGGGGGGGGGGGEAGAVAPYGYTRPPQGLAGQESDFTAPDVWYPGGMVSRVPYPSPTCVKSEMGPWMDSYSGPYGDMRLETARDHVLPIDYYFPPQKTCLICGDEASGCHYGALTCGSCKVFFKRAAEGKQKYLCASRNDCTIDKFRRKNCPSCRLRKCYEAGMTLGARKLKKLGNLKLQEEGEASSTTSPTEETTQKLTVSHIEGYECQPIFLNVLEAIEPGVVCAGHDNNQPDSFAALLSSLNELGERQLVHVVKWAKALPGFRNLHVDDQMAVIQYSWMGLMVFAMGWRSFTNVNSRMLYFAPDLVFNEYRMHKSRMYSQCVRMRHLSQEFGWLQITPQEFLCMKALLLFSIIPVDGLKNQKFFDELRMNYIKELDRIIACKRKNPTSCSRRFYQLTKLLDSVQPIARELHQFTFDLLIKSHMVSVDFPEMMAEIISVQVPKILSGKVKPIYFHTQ
# Source text: Human Androgen Receptor Assay (hAR) in recombinant yeast strain BJ1991 PGKhAR which contains the human androgen receptor (hAR) gene and a built-in color-indicator to androgenicity via an androgen response element (ARE) which is linked to a gene encoding beta-galactosidase, which hydrolyses end terminal B-galactopyranosyl residues on a chlorophenol red-B-D-galactopyranoside releasing colored indicator, chlorophenol red. Thus, test solutions turn further red with androgenicity.
# [2] = biological target: T2, androgen receptor (AR) (Rattus norvegicus, UniProt P15207); test: Androgen Receptor Binding Assay (rat prostatic cytosol), displacement of radiolabeled testosterone
# T2 construct: rat prostatic cytosol as a source of androgen receptors; from tissue; host or cells: rat prostate cytosol
# T2 sequence (P15207 1-902): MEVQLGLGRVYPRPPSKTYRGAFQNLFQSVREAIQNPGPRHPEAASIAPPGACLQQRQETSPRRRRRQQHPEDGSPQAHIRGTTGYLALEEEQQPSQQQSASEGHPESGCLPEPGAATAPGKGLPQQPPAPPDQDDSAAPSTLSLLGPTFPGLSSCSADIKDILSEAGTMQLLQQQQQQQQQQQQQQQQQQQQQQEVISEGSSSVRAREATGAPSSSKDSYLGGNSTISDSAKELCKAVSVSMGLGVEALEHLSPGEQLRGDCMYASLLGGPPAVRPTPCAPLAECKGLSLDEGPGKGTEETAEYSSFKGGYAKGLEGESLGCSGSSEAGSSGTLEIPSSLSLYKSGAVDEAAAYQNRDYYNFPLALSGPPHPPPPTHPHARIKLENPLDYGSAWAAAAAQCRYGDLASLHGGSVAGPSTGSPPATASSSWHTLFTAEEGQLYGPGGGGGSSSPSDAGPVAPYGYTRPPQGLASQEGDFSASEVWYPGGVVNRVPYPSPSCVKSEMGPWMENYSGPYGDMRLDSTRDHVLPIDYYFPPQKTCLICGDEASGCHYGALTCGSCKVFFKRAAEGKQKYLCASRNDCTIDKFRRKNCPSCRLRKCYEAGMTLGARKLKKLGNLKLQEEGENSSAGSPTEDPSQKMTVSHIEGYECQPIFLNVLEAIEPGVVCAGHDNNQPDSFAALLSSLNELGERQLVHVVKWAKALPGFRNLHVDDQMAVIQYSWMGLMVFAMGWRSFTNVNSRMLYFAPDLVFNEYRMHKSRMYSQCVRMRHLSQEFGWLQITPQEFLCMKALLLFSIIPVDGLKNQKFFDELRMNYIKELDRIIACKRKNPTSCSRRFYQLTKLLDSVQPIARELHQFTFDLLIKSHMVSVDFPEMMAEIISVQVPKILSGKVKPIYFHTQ
# Source text: The Androgen Receptor Binding Assay in rat prostatic cytosol as a source of androgen receptors identifies chemicals that have the potential to interact with the androgen receptor (AR) in vitro. […] The biological action of androgens is mediated through their interaction with the AR; androgens have no hormonal activity in the absence of a functional AR. Due to a high degree of DNA sequence conservation, substances that bind the AR from rats are presumed to be capable of binding the AR in humans. (Kelce, 1998; Betney, 2003). This screening assay measures the receptor-binding affinity of chemicals by evaluating their ability to displace a bound reference androgen, showing the degree of competition for normal androgen binding and activity, either acting as an agonist or antagonist (which is not discerned by the assay).
# [3] = biological target: T3, 5-alpha-reductase (Rattus norvegicus, UniProt P24008); test: 5-alpha-reductase activity, conversion of testosterone to dihydrotestosterone in microsomal homogenized rat livers; assay type: biochemical
# T3 construct: in microsomal homogenized rat livers; from tissue; host or cells: rat liver microsomes
# T3 sequence (P24008 1-259): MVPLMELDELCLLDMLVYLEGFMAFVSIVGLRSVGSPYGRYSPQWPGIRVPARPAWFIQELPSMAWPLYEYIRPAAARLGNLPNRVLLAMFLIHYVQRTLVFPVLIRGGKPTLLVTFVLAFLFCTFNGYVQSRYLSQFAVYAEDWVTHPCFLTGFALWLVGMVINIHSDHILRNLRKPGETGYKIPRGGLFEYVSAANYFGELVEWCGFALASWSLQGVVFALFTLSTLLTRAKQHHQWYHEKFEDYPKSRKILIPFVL
# Source text: Finasteride (MK906 or Proscar) was used as the positive control inhibitor.
# [4] = cited from earlier work
# [5] = biological target: T4, ERβ (Homo sapiens, UniProt Q92731); details: cited from earlier work
# T4 construct: host or cells: yeast cells (cited work)
# [6] = biological target: T5, ERα (Homo sapiens, UniProt P03372); details: cited from earlier work
# T5 construct: host or cells: yeast cells (cited work)
# T5 sequence (P03372 1-595): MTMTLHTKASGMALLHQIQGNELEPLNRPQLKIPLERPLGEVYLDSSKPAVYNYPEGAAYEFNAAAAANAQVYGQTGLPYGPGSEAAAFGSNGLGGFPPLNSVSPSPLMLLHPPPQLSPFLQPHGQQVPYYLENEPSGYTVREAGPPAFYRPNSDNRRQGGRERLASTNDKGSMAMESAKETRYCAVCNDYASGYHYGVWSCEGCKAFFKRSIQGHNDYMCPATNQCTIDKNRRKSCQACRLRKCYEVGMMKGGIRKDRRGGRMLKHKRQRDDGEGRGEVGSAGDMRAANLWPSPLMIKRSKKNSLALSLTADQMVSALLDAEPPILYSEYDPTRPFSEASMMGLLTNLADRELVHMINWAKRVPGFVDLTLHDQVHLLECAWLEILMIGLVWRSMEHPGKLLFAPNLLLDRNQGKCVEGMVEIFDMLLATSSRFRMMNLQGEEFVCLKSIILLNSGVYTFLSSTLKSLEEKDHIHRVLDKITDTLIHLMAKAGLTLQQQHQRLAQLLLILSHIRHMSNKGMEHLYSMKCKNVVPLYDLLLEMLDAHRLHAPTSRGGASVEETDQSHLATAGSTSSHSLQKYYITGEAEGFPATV
# [7] = system: yeast cells; details: cited from earlier work
# [8] = rat liver microsomes, read-out: *50% Inhibition (converted)
# [9] = tested at 500 μg/ml, rat prostatic cytosol
# T4 sequence (Q92731 whole entry, species assumed): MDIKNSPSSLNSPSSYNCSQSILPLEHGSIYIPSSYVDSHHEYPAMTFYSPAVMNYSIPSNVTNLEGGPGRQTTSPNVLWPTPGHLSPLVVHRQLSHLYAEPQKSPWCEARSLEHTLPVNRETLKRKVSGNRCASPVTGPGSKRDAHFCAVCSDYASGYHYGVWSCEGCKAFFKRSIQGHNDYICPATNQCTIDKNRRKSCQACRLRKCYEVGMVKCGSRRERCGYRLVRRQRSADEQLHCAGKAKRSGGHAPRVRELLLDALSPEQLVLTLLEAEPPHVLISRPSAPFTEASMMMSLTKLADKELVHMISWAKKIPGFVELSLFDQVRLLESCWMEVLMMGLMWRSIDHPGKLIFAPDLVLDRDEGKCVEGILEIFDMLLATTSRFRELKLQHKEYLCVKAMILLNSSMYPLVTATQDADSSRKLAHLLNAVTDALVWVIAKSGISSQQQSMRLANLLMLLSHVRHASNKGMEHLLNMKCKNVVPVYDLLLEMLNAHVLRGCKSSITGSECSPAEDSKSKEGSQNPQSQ
compound,measurement,setting,value
"CC1(C)C=Cc2c(O)ccc(C3=Cc4ccc(O)cc4OC3)c2O1 [#1 Glabrene, Glabrene]",*hAG (agonist),[1]; tested at 25 μg/ml,Inactive
same,*hAT (antagonist),[1]; tested at 25 μg/ml,Inactive
same,inhibition at 125 µg/mL,"[2]; tested at 125 μg/ml, rat prostatic cytosol, read-out: *Specific Binding % Inhibition",21%
same,"5-alpha-reductase inhibition, in words",[3],significant 5ARI activity; also recorded: potent dihydrotestosterone reductase inhibitors
same,"5-alpha-reductase inhibition, in words",[3]; listed as #1,interfere with the activity of 5-alpha-reductase
same,IC50,[3]; read-out: IC50 (5ARI) (converted),15.5 µM
"CC1(C)C=Cc2c(ccc3c2OC[C@@H](c2ccc(O)cc2O)C3)O1 [#4 Glabridin, Glabridin]","solubility in water, in words",[4],insoluble in water
same,*hAG (agonist),[1]; tested at 5 μg/ml,Inactive
same,*hAT (antagonist),[1]; tested at 5 μg/ml,Inactive
same,"estrogenic response (agonism), in words",[5]; 1×10^−7 to 1×10^−4 M,does not exert any estrogenic response
same,"ERβ antagonism, in words",[5],did not have antagonistic properties
same,"estrogenic response (agonism), in words",[6]; 1×10^−7 to 1×10^−4 M,does not exert any estrogenic response
same,inhibition of the E2 response,"[6]; at 6×10^−6 M, without being toxic towards yeast cells",~80%
same,"ERα antagonism, in words",[6],ERα-selective antagonist
same,reduction of estrogenic E2,[6],80%
same,"androgen receptor binding / interference with testosterone binding, in words",[2],does not interfere with normal testosterone to androgen receptor binding
same,inhibition at 500 µg/mL,"[2]; tested at 500 μg/ml, rat prostatic cytosol, read-out: *Specific Binding % Inhibition",0%
same,concentration toxic to yeast cells,[7],above 1×10^−4 M
same,"5-alpha-reductase inhibition, in words",[3],significant 5ARI activity; also recorded: potent dihydrotestosterone reductase inhibitors
same,"5-alpha-reductase inhibition, in words",[3]; listed as #4,interfere with the activity of 5-alpha-reductase
same,IC50,[3]; [8],89.4 µM
"C=CC(C)(C)c1cc(/C=C/C(=O)c2ccc(O)cc2)c(OC)cc1O [#5 Licochalcone A, Licochalcone A]",*hAG (agonist),[1]; tested at 5 μg/ml,Inactive
same,*hAT (antagonist),[1]; tested at 5 μg/ml,Inactive
same,*Specific Binding % Inhibition,[2]; [9],21%
same,"5-alpha-reductase inhibition, in words",[3]; listed as #5,interfere with the activity of 5-alpha-reductase
same,"5-alpha-reductase inhibition, in words",[3]; listed as Licochalcone A,potent dihydrotestosterone reductase inhibitors
same,"5-alpha-reductase inhibition, in words",[3]; listed as licochalcone A,significant 5ARI activity
same,*50% Inhibition,[3]; rat liver microsomes,7 µg/mL
"C[C@@H](CC[C@@]1(O)O[C@H]2C[C@H]3[C@@H]4CC=C5C[C@@H](O[C@@H]6O[C@H](CO)[C@@H](O)[C@H](O[C@@H]7O[C@H](CO)[C@@H](O)[C@H](O)[C@H]7O)[C@H]6O[C@@H]6O[C@@H](C)[C@H](O)[C@@H](O)[C@H]6O)CC[C@]5(C)[C@H]4CC[C@]3(C)[C@H]2[C@@H]1C)CO[C@@H]1O[C@H](CO)[C@@H](O)[C@H](O)[C@H]1O [#9 Protogracillin, Protogracillin]","hAR assay activity, in words",[1],testosterone agonist activity
same,receptor affinity relative to cyproterone's binding affinity,[1],1/200
same,*hAG (agonist),[1]; tested at 100 μg/ml,Active (2)
same,*hAT (antagonist),[1]; tested at 100 μg/ml,Inactive
same,"androgen receptor binding / interference with testosterone binding, in words",[2]; listed as Protogracillin,does not interfere with normal testosterone binding to receptor
same,"androgen receptor binding / interference with testosterone binding, in words",[2]; listed as protogracillin,did not interfere with regular testosterone receptor binding
same,*Specific Binding % Inhibition,[2]; [9],0%
same,"5-alpha-reductase inhibition, in words",[3],did not inhibit 5AR
"CC(C)(C)NC(=O)[C@H]1CC[C@H]2[C@@H]3CC[C@H]4NC(=O)C=C[C@]4(C)[C@H]3CC[C@]12C [Finasteride Proscar Control, Finasteride, reference compound]",IC50,"[3]; positive control, read-out: IC50 (converted)",~0.188 µM
same,IC50,[3]; [8],0.188 µM
CC1=CCC(C(C)(C)O)CC1 (stereo not drawn) [alpha-terpineol],"5-alpha-reductase inhibition, in words",[3],significant 5ARI activity
Leucoanthocyanidin [#6 Leucoanthocyanidin],*hAG (agonist),[1]; tested at 500 μg/ml,Clear
same,*hAT (antagonist),[1]; tested at 500 μg/ml,Clear
same,*Specific Binding % Inhibition,[2]; [9],28%
same,"5-alpha-reductase inhibition, in words",[3],significant 5ARI activity
same,"5-alpha-reductase inhibition, in words",[3]; listed as #6,interfere with the activity of 5-alpha-reductase
same,*50% Inhibition,[3]; rat liver microsomes,30 µg/mL
